Results reported in ChEMBL document CHEMBL5625182, “Synthesis and antibacterial activities of baulamycin A inspired derivatives” (Eur J Med Chem, 2023).
In brackets after ≈: the same amount, converted by molar mass. Activity calls are given as the source filed them. No cut-off for these calls is given here.

Assays:
[1] = molecular target: T1, L-2,3-diaminopropanoate--citrate ligase (Staphylococcus aureus (strain NCTC 8325 / PS 47), UniProt Q2G1M9); assay: Inhibition of Staphylococcus aureus SbnE incubated for 1 hr by malachite green staining based microplate reader analysis
T1 sequence (Q2G1M9 whole entry): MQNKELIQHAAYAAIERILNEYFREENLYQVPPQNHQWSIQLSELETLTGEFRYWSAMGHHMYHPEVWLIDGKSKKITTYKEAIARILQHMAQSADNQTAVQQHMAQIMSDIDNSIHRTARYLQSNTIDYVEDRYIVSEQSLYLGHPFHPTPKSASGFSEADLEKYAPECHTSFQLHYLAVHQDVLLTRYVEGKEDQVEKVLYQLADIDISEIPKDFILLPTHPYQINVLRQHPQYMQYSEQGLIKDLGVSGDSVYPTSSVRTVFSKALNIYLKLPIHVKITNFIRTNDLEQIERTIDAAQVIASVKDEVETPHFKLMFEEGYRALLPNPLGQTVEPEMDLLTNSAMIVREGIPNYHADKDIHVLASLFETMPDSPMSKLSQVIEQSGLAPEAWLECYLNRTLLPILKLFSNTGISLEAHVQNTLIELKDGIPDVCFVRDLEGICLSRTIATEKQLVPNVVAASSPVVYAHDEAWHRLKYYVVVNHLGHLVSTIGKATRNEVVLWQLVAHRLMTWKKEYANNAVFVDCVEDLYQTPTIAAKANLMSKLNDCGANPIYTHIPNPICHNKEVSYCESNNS

[2] = tested on: Staphylococcus aureus; assay: Antibacterial activity against methicillin resistant Staphylococcus aureus CCARM3167 assessed as inhibition in bacterial growth incubated for 18 hrs by microdilution method; type: functional
[3] = tested on: Staphylococcus aureus; assay: Antibacterial activity against methicillin resistance Staphylococcus aureus CCARM3167 assessed as inhibition of siderophore production at 1/4 times MIC incubated for 18 hrs by CAS liquid assay; type: functional, organism-based
[4] = tested on: Staphylococcus aureus; assay: Antibacterial activity against […] Staphylococcus aureus ATCC25923 assessed as inhibition in bacterial growth incubated for 18 hrs by microdilution method; type: functional
[5] = molecular target: T2, L-2,3-diaminopropanoate--citrate ligase (Staphylococcus aureus (strain NCTC 8325 / PS 47)) (UniProt Q2G1M9); assay: Inhibition of Staphylococcus aureus SbnE at 50 uM incubated for 1 hr by malachite green staining based microplate reader analysis relative to control
T2 sequence (whole entry): T1 sequence (Q2G1M9 whole entry)

[6] = tested on: Staphylococcus aureus; assay: Antibacterial activity against Staphylococcus aureus ATCC25923 assessed as inhibition of siderophore production at 1/2 times MIC incubated for 18 hrs by CAS liquid assay; type: functional, organism-based
[7] = tested on: Cell membrane; assay: Induction of membrane disruption in methicillin resistant Staphylococcus aureus CCARM3167 at MIC incubated for 30 mins PI staining based Flow cytometry
[8] = tested on: Bacillus cereus; assay: Antibacterial activity against Bacillus cereus ATCC27348 assessed as inhibition of bacterial growth incubated for 18 hrs by microdilution method; type: functional
[9] = tested on: Salmonella typhimurium; assay: Antibacterial activity against Salmonella typhimurium ATCC14028 assessed as inhibition of bacterial growth incubated for 18 hrs by microdilution method; type: functional, Salmonella enterica subsp. enterica serovar Typhimurium; details: Salmonella enterica
[10] = tested on: Staphylococcus aureus; assay: Antibacterial activity against methicillin resistance Staphylococcus aureus assessed as reduction in biofilm formation at 1/2 times MIC incubated 24 hrs by crystal violet staining based microplate reader analysis; type: functional, organism-based
[11] = tested on: Escherichia coli; assay: Antibacterial activity against Escherichia coli MC1061 assessed as inhibition of bacterial growth incubated for 18 hrs by microdilution method; type: functional
[12] = tested on: Staphylococcus aureus; assay: Antibacterial activity against quinolone-resistant Staphylococcus aureus CCARM3505 assessed as inhibition of bacterial growth incubated for 18 hrs by microdilution method; type: functional
[13] = Antibacterial activity against Bacillus subtilis ATCC6633 assessed as inhibition of bacterial growth incubated for 18 hrs by microdilution method; type: functional, Bacillus subtilis […]

| Structure (SMILES) | IC50 [1] [µM] | MIC [2] [µg/mL] | Activity [3] | MIC [4] [µg/mL] | inhibition [5] [%] | Activity [6] | Activity [7] | MIC [8] [µg/mL] | MIC [9] [µg/mL] | Activity [10] | MIC [11] [µg/mL] | MIC [12] [µg/mL] | MIC [13] [µg/mL] |
| --- | --- | --- | --- | --- | --- | --- | --- | --- | --- | --- | --- | --- | --- |
| CC(C)C[C@H]([C@H](O)CCN)[C@@H](O)c1cc(O)cc(O)c1 | 1.81 | > 256 | inactive | > 256 | 97.2 | inactive | – | – | – | – | – | – | – |
| CC(C)C[C@H]([C@H](O)C[C@H](O)C#C[C@@H](C)C[C@H](C)C[C@@H](C)COCc1ccccc1)[C@@H](O)c1cc(O)cc(O)c1 | 5.49 | 4 (≈ 7.4 µM) | – | 8 (≈ 14.8 µM) | 71.7 | – | Active | > 256 | > 256 | Active | > 256 | 16 (≈ 29.6 µM) | > 256 |
| CC(C)C[C@H]([C@H](O)CCNCc1ccccc1)[C@@H](O)c1cc(O)cc(O)c1 | 3.45 | > 256 | inactive | > 256 | 97.1 | inactive | – | – | – | – | – | – | – |
| CC(C)C[C@@H]([C@H](O)C[C@H](O)CCCCCCCCNCc1ccccc1)[C@@H](O)c1cc(O)cc(O)c1 | 41.1 | 0.5 (≈ 0.997 µM) | inactive | 2 (≈ 3.99 µM) | 57.9 | inactive | Active | 1 (≈ 1.99 µM) | 4 (≈ 7.97 µM) | Active | 0.25 (≈ 0.498 µM) | 0.5 (≈ 0.997 µM) | 4 (≈ 7.97 µM) |
| Cc1ccc(NCC[C@@H](O)[C@@H](CC(C)C)[C@@H](O)c2cc(O)cc(O)c2)c(Cl)c1 | 4.12 | 32 (≈ 78.4 µM) | – | 16 (≈ 39.2 µM) | 89.2 | – | Active | > 256 | > 256 | Active | > 256 | 64 (≈ 157 µM) | > 256 |
| C[C@@H](COCc1ccccc1)C[C@H](C)C[C@H](C)C#CC(O)C[C@@H](O)c1cc(O)cc(O)c1 (stereo partly drawn) | 8.94 | 256 (≈ 581 µM) | – | 128 (≈ 291 µM) | 76.4 | – | Active | 64 (≈ 145 µM) | > 256 | Active | > 256 | 128 (≈ 291 µM) | > 256 |
